Where a name gives a salt, the structure may show the parent alone.
Target: T1, MATE1 (Homo sapiens, UniProt Q96FL8)
T1 sequence (Q96FL8 1-570): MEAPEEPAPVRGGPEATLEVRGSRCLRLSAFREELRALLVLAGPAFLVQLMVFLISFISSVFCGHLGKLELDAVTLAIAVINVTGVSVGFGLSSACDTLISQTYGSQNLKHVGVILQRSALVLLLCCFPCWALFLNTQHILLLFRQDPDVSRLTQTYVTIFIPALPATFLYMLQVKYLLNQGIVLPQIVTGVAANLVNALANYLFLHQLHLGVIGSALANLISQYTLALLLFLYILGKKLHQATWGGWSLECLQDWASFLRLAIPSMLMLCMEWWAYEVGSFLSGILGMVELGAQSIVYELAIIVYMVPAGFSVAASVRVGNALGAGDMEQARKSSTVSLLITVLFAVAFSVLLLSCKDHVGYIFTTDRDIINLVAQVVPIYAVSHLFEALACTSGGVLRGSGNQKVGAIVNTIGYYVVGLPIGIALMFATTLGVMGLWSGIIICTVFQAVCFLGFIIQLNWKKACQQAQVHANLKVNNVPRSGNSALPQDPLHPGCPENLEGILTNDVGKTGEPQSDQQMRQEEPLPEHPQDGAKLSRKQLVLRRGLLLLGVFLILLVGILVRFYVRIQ
Experiment: MATE1-mediated uptake in transduced HEK293 cells
Format: cell-based
Parameters: host or cells: HEK293, baculovirus transduction (CMV promoter), transient
Settings: 100 µM, 5 min
Experimental: HEK293 cells were modified to transiently express (a combination of) human OCT1, OCT2, MATE1, MATE2-K, or eYFP. Briefly, cDNA of the respective genes was cloned downstream of a CMV promoter into a baculovirus, of which passage three was used to transduce HEK293 cells. These cells were seeded in poly-D-lysine coated 24- or 96-wells plates and grown in a 37 °C incubator at 5% CO2. Growth was initiated at ~ 25% confluency using 375 or 125 μL cell and complete medium (DMEM + GlutaMAX™-I supplemented with 10% fetal bovine serum) suspension per well, respectively. […]
Import and export of PG and cycloguanil (CG) was assessed by single and double transduced HEK293 cells. […] Following the same procedure as for the cellular import assay described above, the import of 100 µM PG and CG was measured after 5 min incubation and data was plotted as mean pmol/mg/min ± SEM. […] Significant reduction in uptake (i.e. export by MATEs) was determined using ln transformation and a one-way repeated measures ANOVA with Dunnet’s post test.
Anti-malarial concentration in the cell lysates was quantified using an LC–MS/MS system consisting of a UPLC, a binary solvent manager, a vacuum degasser and an autosampler, coupled to a Xevo TQ-S micro triple quadrupole mass spectrometer. […] The peak area of the most abundant product ion was used for quantification.

Q: Which “Uptake by MATE1” value does the source give for `CC1(C)N=C(N)N=C(N)N1c1ccc(Cl)cc1` [Cycloguanil] here?
A: The value was 40 ± 9 pmol/mg/min.

Q: `[H]/N=C(\N/C(=N/[H])Nc1ccc(Cl)cc1)NC(C)C` [Proguanil, proguanil hydrochloride] was tested. Which “Uptake by MATE1” value did it give?
A: The value was 430 ± 110 pmol/mg/min.
